Source: patent US10597388B2, “Pyridazinone herbicides” (FMC CORPORATION, priority 2014, dated 2020)

Key:
Test in all cases: Test D controlled growth environment herbicide test, pre- and postemergence
Assay type in all cases: in vivo
[1] = test system: barley, spring (spring barley, Hordeum vulgare)
Procedure, shortened: (§1)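 Species sown in silt loam and sprayed preemergence, or grown in peat-based medium to 2–18 cm (1- to 4-leaf stage) and sprayed postemergence, with compounds in non-phytotoxic solvent plus surfactant. Visual injury scored versus controls after 14–21 d in a controlled environment, 0 (no effect) to 100 (complete control).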

[2] = test system: barley, winter (winter barley, Hordeum vulgare)
Procedure, shortened: as §1

[3] = test system: blackgrass (Alopecurus myosuroides)
Procedure, shortened: as §1

[4] = test system: bromegrass, downy (downy bromegrass, Bromus tectorum)
Procedure, shortened: as §1

[5] = test system: chamomile (scentless chamomile, Matricaria inodora)
Procedure, shortened: as §1

[6] = test system: chickweed (common chickweed, Stellaria media)
Procedure, shortened: as §1

[7] = test system: deadnettle (henbit deadnettle, Lamium amplexicaule)
Procedure, shortened: as §1

[8] = test system: field poppy (Papaver rhoeas)
Procedure, shortened: as §1

[9] = test system: foxtail, green (green foxtail, Setaria viridis)
Procedure, shortened: as §1

[10] = test system: lambsquarters (Chenopodium album)
Procedure, shortened: as §1

[11] = test system: ryegrass, Italian (Italian ryegrass, Lolium multiflorum)
Procedure, shortened: as §1

[12] = test system: wheat, spring (spring wheat, Triticum aestivum)
Procedure, shortened: as §1

[13] = test system: wheat, winter (winter wheat, Triticum aestivum)
Procedure, shortened: as §1

[14] = Postemergence, 31 g ai/ha, scale 0 to 100 (0 no effect, 100 complete control)
[15] = Postemergence, 125 g ai/ha, visual rating on scale 0 (no effect) to 100 (complete control), 14 to 21 d
[16] = Postemergence, 250 g ai/ha, scale 0 to 100 (0 no effect, 100 complete control)
[17] = Preemergence, 62 g ai/ha, scale 0 to 100 (0 no effect, 100 complete control)
[18] = Preemergence, 125 g ai/ha, scale 0 to 100 (0 no effect, 100 complete control)
[19] = Preemergence, 250 g ai/ha, scale 0 to 100 (0 no effect, 100 complete control)
[20] = postemergence, 62 g ai/ha, scale 0 to 100, 0 no effect, 100 complete control

## COc1nn(C)c(=O)c(-c2c(C)ccc3ccccc23)c1O [Compound 54]
[1]; [14]
  Barley, Spring plant response rating: 0
[1]; [15]
  Plant response rating, Barley, Spring: 0
[1]; [16]
  Plant response rating, Barley, Spring: 10
[1]; Preemergence, 31 g ai/ha
  Plant response rating (scale of 0 to 100), Barley, Spring: 0
[1]; [17]
  Plant response rating, Barley, Spring: 0
[1]; [18]
  Plant response rating, Barley, Spring: 0
[1]; [19]
  Plant response rating, Barley, Spring: 5
[1]; [20]
  Plant response rating, Barley, Spring: 0
[2]; [14]
  Barley, Winter plant response rating: 0
[2]; [15]
  Plant response rating, Barley, Winter: 5
[2]; [16]
  Plant response rating, Barley, Winter: 30
[2]; Preemergence, 31 g ai/ha
  Plant response rating (scale of 0 to 100), Barley, Winter: 0
[2]; [17]
  Plant response rating, Barley, Winter: 0
[2]; [18]
  Plant response rating, Barley, Winter: 0
[2]; [19]
  Plant response rating, Barley, Winter: 0
[2]; [20]
  Plant response rating, Barley, Winter: 0
[3]; [14]
  Blackgrass plant response rating: 25
[3]; [15]
  Plant response rating, Blackgrass: 70
[3]; [16]
  Plant response rating, Blackgrass: 75
[3]; Preemergence, 31 g ai/ha
  Plant response rating (scale of 0 to 100), Blackgrass: 15
[3]; [17]
  Plant response rating, Blackgrass: 30
[3]; [18]
  Plant response rating, Blackgrass: 50
[3]; [19]
  Plant response rating, Blackgrass: 75
[3]; [20]
  Plant response rating, Blackgrass: 40
[4]; [14]
  Bromegrass, Downy plant response rating: 10
[4]; [15]
  Plant response rating, Bromegrass, Downy: 55
[4]; [16]
  Plant response rating, Bromegrass, Downy: 75
[4]; Preemergence, 31 g ai/ha
  Plant response rating (scale of 0 to 100), Bromegrass, Downy: 0
[4]; [17]
  Plant response rating, Bromegrass, Downy: 15
[4]; [18]
  Plant response rating, Bromegrass, Downy: 15
[4]; [19]
  Plant response rating, Bromegrass, Downy: 40
[4]; [20]
  Plant response rating, Bromegrass, Downy: 55
[5]; [14]
  Chamomile plant response rating: 90
[5]; [15]
  Plant response rating, Chamomile: 100
[5]; [16]
  Plant response rating, Chamomile: 100
[5]; [20]
  Plant response rating, Chamomile: 100
[6]; [14]
  Chickweed plant response rating: 100
[6]; [15]
  Plant response rating, Chickweed: 100
[6]; [16]
  Plant response rating, Chickweed: 100
[6]; Preemergence, 31 g ai/ha
  Plant response rating (scale of 0 to 100), Chickweed: 85
[6]; [17]
  Plant response rating, Chickweed: 90
[6]; [18]
  Plant response rating, Chickweed: 95
[6]; [19]
  Plant response rating, Chickweed: 100
[6]; [20]
  Plant response rating, Chickweed: 100
[7]; [14]
  Deadnettle plant response rating: 100
[7]; [15]
  Plant response rating, Deadnettle: 100
[7]; [16]
  Plant response rating, Deadnettle: 100
[7]; Preemergence, 31 g ai/ha
  Plant response rating (scale of 0 to 100), Deadnettle: 0
[7]; [17]
  Plant response rating, Deadnettle: 60
[7]; [18]
  Plant response rating, Deadnettle: 70
[7]; [19]
  Plant response rating, Deadnettle: 95
[7]; [20]
  Plant response rating, Deadnettle: 100
[8]; [14]
  Field Poppy plant response rating: 70
[8]; [15]
  Plant response rating, Field Poppy: 100
[8]; [16]
  Plant response rating, Field Poppy: 100
[8]; Preemergence, 31 g ai/ha
  Plant response rating (scale of 0 to 100), Field Poppy: 90
[8]; [17]
  Plant response rating, Field Poppy: 55
[8]; [18]
  Plant response rating, Field Poppy: 100
[8]; [19]
  Plant response rating, Field Poppy: 100
[8]; [20]
  Plant response rating, Field Poppy: 100
[9]; [14]
  Foxtail, Green plant response rating: 55
[9]; [15]
  Plant response rating, Foxtail, Green: 70
[9]; [16]
  Plant response rating, Foxtail, Green: 80
[9]; Preemergence, 31 g ai/ha
  Plant response rating (scale of 0 to 100), Foxtail, Green: 50
[9]; [17]
  Plant response rating, Foxtail, Green: 60
[9]; [18]
  Plant response rating, Foxtail, Green: 65
[9]; [19]
  Plant response rating, Foxtail, Green: 100
[9]; [20]
  Plant response rating, Foxtail, Green: 65
[10]; [14]
  Lambsquarters plant response rating: 95
[10]; [15]
  Plant response rating, Lambsquarters: 95
[10]; [16]
  Plant response rating, Lambsquarters: 100
[10]; Preemergence, 31 g ai/ha
  Plant response rating (scale of 0 to 100), Lambsquarters: 65
[10]; [17]
  Plant response rating, Lambsquarters: 65
[10]; [18]
  Plant response rating, Lambsquarters: 95
[10]; [19]
  Plant response rating, Lambsquarters: 95
[10]; [20]
  Plant response rating, Lambsquarters: 95
[11]; [14]
  Ryegrass, Italian plant response rating: 80
[11]; [15]
  Plant response rating, Ryegrass, Italian: 90
[11]; [16]
  Plant response rating, Ryegrass, Italian: 95
[11]; Preemergence, 31 g ai/ha
  Plant response rating (scale of 0 to 100), Ryegrass, Italian: 35
[11]; [17]
  Plant response rating, Ryegrass, Italian: 90
[11]; [18]
  Plant response rating, Ryegrass, Italian: 100
[11]; [19]
  Plant response rating, Ryegrass, Italian: 100
[11]; [20]
  Plant response rating, Ryegrass, Italian: 85
[12]; [14]
  Wheat, Spring plant response rating: 0
[12]; [15]
  Plant response rating, Wheat, Spring: 15
[12]; [16]
  Plant response rating, Wheat, Spring: 25
[12]; Preemergence, 31 g ai/ha
  Plant response rating (scale of 0 to 100), Wheat, Spring: 0
[12]; [17]
  Plant response rating, Wheat, Spring: 0
[12]; [18]
  Plant response rating, Wheat, Spring: 0
[12]; [19]
  Plant response rating, Wheat, Spring: 45
[12]; [20]
  Plant response rating, Wheat, Spring: 0
[13]; [14]
  Wheat, Winter plant response rating: 0
[13]; [15]
  Plant response rating, Wheat, Winter: 25
[13]; [16]
  Plant response rating, Wheat, Winter: 30
[13]; Preemergence, 31 g ai/ha
  Plant response rating (scale of 0 to 100), Wheat, Winter: 0
[13]; [17]
  Plant response rating, Wheat, Winter: 0
[13]; [18]
  Plant response rating, Wheat, Winter: 15
[13]; [19]
  Plant response rating, Wheat, Winter: 35
[13]; [20]
  Plant response rating, Wheat, Winter: 5
